From patent publication US6900225B2, “Quinolonecarboxylic acid derivative” (Daiichi Pharmaceutical Co., Ltd., priority 2001, dated 2005)
Values after ≈ are worked out from the molar mass of the structure shown. “Also recorded” adds a separate entry of the source. Where a name gives a salt, the structure may show the parent alone.

Assays:
Slc:ddY mice = assay: Central toxicity after cisternal administration, alone or combined with biphenylacetic acid; format: in vivo; settings: 5 μg/mouse
Experimental: Slc:ddY mice (male; 3 weeks old) were used in groups of ten. Compound (1) was dissolved in distilled water in order to prepare injections, and the resultant solution was cisternally administered in a volume of […]. To the members of the group where compound (1) and biphenylacetic acid were used in combination, biphenylacetic acid (400 mg/kg) was perorally administered first, and 30 minutes following the administration, compound (1) was cisternally administered in a manner similar to that employed for the single use of compound (1).

[1] = tested on: Str. faecalis, ATCC 19433; assay: Antibacterial activity (MIC), Japanese Society of Chemotherapy standard method; format: cell-based; settings: Enterococcus faecalis, ATCC19433
Experimental: (§1) Antibacterial activity was investigated by comparing compound (1) with comparative compounds B and C (see next page). This test was performed according to the standard method recommended by Japanese Society of Chemotherapy.

Ps. aeruginosa, 32104 = assay: as above; format: cell-based; settings: Pseudomonas aeruginosa
Experimental: as §1

E. coli, NIHJ = assay: as above; format: cell-based; settings: Escherichia coli
Experimental: as §1

Pr. vulgaris, 08601 = assay: as above; format: cell-based; settings: Proteus vulgaris
Experimental: as §1

S. epidermidis, 56500 = assay: as above; format: cell-based; settings: Staphylococcus epidermidis
Experimental: as §1

S. aureus, 209P = assay: as above; format: cell-based; settings: Staphylococcus aureus
Experimental: as §1

Ser. marcescens, 10100 = assay: as above; format: cell-based; settings: Serratia marcescens
Experimental: as §1

Ps. aeruginosa, 32121 = assay: as above; format: cell-based; settings: Pseudomonas aeruginosa
Experimental: as §1

[2] = Storage stability for one week (heat, humidity, light), residual amount by liquid chromatography; format: physicochemical
Experimental: Compound (1) (1.5 mg) was stored for one week under the following conditions: (1) in a sealed bottle at 70° C., (2) in an open-air state at 50° C., 75% RH (NaCl), or (3) irradiation with light at 100,000 lx·h (2,500 lx×40 h). Subsequently, the residual amount of compound (1) was quantitatively determined by means of liquid chromatography.

E. coli strain E77156 = assay: Infection-preventing effect on mouse sepsis model (E. coli); format: in vivo; settings: Slc:ddY mice, intraperitoneal E. coli E77156 8.08×10^7 CFU/mouse, single tail vein injection
Experimental: (§2) Groups of Slc:ddY mice, each group consisting of 7 mice, were used in the test. The mice were intraperitoneally inoculated with methicillin-resistant Staphylococcus aureus (MRSA) strain 7866 (1.07×10^8 CFU/mouse) or E. coli strain E77156 (8.08×10^7 CFU/mouse). Compound (1) was given as a single injection into the tail vein of each mouse immediately after infection. On the basis of the survival count on day 7 after infection, 50% efficacy was calculated using the probit method, to thereby evaluate the efficacy.

pneumococcus SPI-13 = assay: Therapeutic effect on mouse pneumonia model with pneumococcus of low penicillin sensitivity; format: in vivo; settings: CBA/J mice
Experimental: Groups of CBA/J mice, each group consisting of 5 mice, were used in the test. The mice were nasally infected with pneumococcus SPI-13 at 5.3×10^6 CFU/mouse. Compound (1) was subcutaneously administered to each mouse at doses of 7.5 mg/kg, 15 mg/kg, or 30 mg/kg, for three consecutive days from the day following infection, twice a day at an interval of 6 hours. The efficacy of compound (1) was assessed by counting the number of the intrapulmonary bacteria on the day following the final administration.

[3] = tested on: arthrodial cartilage of young beagles; assay: Articular toxicity in young beagles, peroral for eight days; format: in vivo; settings: 7.5 mg/kg, 15 mg/kg and 30 mg/kg
Excerpt: Groups of young beagles (male; 3-4 months old), each group consisting of 3 dogs, were used in the test. Compound (1) was perorally administered to each dog for eight days. Thereafter, important diarthroses were pathologically examined. […] Thus, articular toxicity of compound (1) is quite weak and insignificant, proving that compound (1) is a very safe compound.

Solubility in water = format: physicochemical
Excerpt: Solubility of compound (1) in water was investigated.

[4] = Moisture absorption/desorption (moisture absorption analyzer, weight change at 5-95% RH); format: physicochemical; settings: 25° C., relative humidity 5-95% RH; monohydrochloride monohydrate
Experimental: Moisture absorption/desorption of compound (1) was investigated by using samples each weighing approximately 10 mg and a moisture absorption analyzer manufactured by VTI (model SGA-100). The measurement was performed at 25° C., and the relative humidity was changed in the range of 5% to 95% at intervals of 5% or 10%. When the weight change of a sample is 0.03% or less within 30 minutes, the sample is considered to be in a state of equilibrium, and in this test, the longest equilibrium time was set to be 180 minutes. The weight change of each sample at different relative humidities was determined.

[5] = tested on: methicillin-resistant Staphylococcus aureus (MRSA) strain 7866; assay: Infection-preventing effect on mouse sepsis model (MRSA); format: in vivo; settings: Slc:ddY mice, intraperitoneal MRSA 7866 1.07×10^8 CFU/mouse, single tail vein injection
Experimental: as §2

Balb/c mice = assay: Phototoxicity: intravenous administration, then UV-A exposure; format: in vivo; settings: intravenous 100 mg/kg, UV-A 20 J/cm^2 for four hours
Experimental: Groups of Balb/c mice (female; 5 weeks old), each group consisting of 5-6 mice, were used in the test. After compound (1) was intravenously administered to each mouse, the mouse was exposed to long-wavelength UV light (UV-A) (20 J/cm^2) for four hours. Thereafter, the auricle was visually observed for 96 hours. Subsequently the mouse was sacrificed for examination of the tissue. […] Thus, compound (1) is a very safe compound, being free from phototoxicity, which is often observed with quinolone-based antibacterial agents.

[6] = Stability of acid addition salts of compound (1a) under various levels of humidity; settings: high-humidity conditions
[7] = combined: biphenylacetic acid 400 mg/kg perorally 30 minutes before cisternal administration
[8] = solo cisternal administration, groups of ten

Row | SMILES | Death (Slc:ddY mice; [7]) | Death (Slc:ddY mice; [8]) | Spasm (Slc:ddY mice; [8]) | MIC [1] [µg/mL] | MIC (Ps. aeruginosa, 32104) [µg/mL] | MIC (E. coli, NIHJ) [µg/mL] | MIC (Pr. vulgaris, 08601) [µg/mL] | MIC (S. epidermidis, 56500) [µg/mL] | MIC (S. aureus, 209P) [µg/mL] | MIC (Ser. marcescens, 10100) [µg/mL] | MIC (Ps. aeruginosa, 32121) [µg/mL] | also measured
1 | COc1c(N2C[C@@H](N)[C@@H](C)C2)c(F)cc2c(=O)c(C(=O)O)cn([C@@H]3C[C@@H]3F)c12 [Comparative Compound A, reference compound] | two | one | two | – | – | – | – | – | – | – | – | –
2 | CCOc1c(N2C[C@@H](N)C3(CC3)C2)c(F)cc2c(=O)c(C(=O)O)cn([C@@H]3C[C@@H]3F)c12 [Comparative Compound B] | – | – | – | 0.2 (≈ 0.477 µM) | 0.39 (≈ 0.93 µM) | 0.006 (≈ 0.0143 µM) | 0.05 (≈ 0.119 µM) | 0.1 (≈ 0.238 µM) | 0.025 (≈ 0.0596 µM) | 0.2 (≈ 0.477 µM) | 0.2 (≈ 0.477 µM) | –
3 | CCOc1c(N2CC(C)C(N)C2)c(F)cc2c(=O)c(C(=O)O)cn([C@@H]3C[C@@H]3F)c12 (stereo partly shown) [Comparative Compound C] | – | – | – | 0.39 (≈ 0.957 µM) | 0.78 (≈ 1.91 µM) | 0.025 (≈ 0.0614 µM) | 0.05 (≈ 0.123 µM) | 0.2 (≈ 0.491 µM) | 0.05 (≈ 0.123 µM) | 0.2 (≈ 0.491 µM) | 0.39 (≈ 0.957 µM) | –
4 | COc1c(N2C[C@@H](N)C3(CC3)C2)c(F)cc2c(=O)c(C(=O)O)cn([C@@H]3C[C@@H]3F)c12 [Compound (1), (−)-7-[(7S)-7-amino-5-azaspiro[2.4]heptan-5-yl]-6-fluoro-1-[(1R, 2S)-2-fluoro-1-cyclopropyl]-1,4-dihydro-8-methoxy-4-oxo-3-quinolinecarboxylic acid monohydrochloride monohydrate] | neither spasm nor death | neither spasm nor death | neither spasm nor death | 0.1 | 0.2 | ≤ 0.003 | 0.012 | 0.05 | 0.006 | 0.05 | 0.05 | Stability when exposed to light, compared with compound No. 26bb ([2]; light 100,000 lx·h (2,500 lx×40 h)): superior to that of compound No. 26bb; Stability (residual amount by liquid chromatography) ([2]; one week: sealed bottle 70° C., open 50° C., 75% RH, light 100,000 lx·h): remained stable, not undergoing any decomposition; 50% efficacy (probit method, survival count on day 7) (E. coli strain E77156): 0.57 mg/kg; Number of intrapulmonary bacteria (pneumococcus SPI-13; subcutaneous 7.5 mg/kg twice a day for three days): approximately half that of the control; Number of intrapulmonary bacteria (pneumococcus SPI-13; subcutaneous 15 mg/kg twice a day for three days): below the detection limit; Number of intrapulmonary bacteria (pneumococcus SPI-13; subcutaneous 30 mg/kg twice a day for three days): below the detection limit; Formation of blebs or erosions in arthrodial cartilage [3]: not at all observed; solubility (Solubility in water): ≥ 100 mg/mL; Moisture absorption/desorption (weight change) [4]: neither absorbing or desorbing moisture; also recorded: do not absorb or desorb moisture; 50% efficacy (probit method, survival count on day 7) [5]: 3.34 mg/kg; Phototoxicity: abnormality of auricle (visual observation 96 hours, tissue examination) (Balb/c mice): no abnormality was observed; Spasm (Slc:ddY mice; [7]): neither spasm nor death
5 | COc1c(N2C[C@@H](N)C3(CC3)C2)c(F)cc2c(=O)c(C(=O)O)cn([C@@H]3C[C@@H]3F)c12.CS(=O)(=O)O [methanesulfonic acid salt, Methanesulfonic Acid Salt of (−)-7-{(7S)-7-amino-5-azaspiro[2.4]heptan-5-yl}-6-fluoro-1-[(1R, 2S)-2-fluoro-1-cyclopropyl]-1,4-dihydro-8-methoxy-4-oxo-3-quinolinecarboxylic acid] | – | – | – | – | – | – | – | – | – | – | – | Stability under various levels of humidity [6]: tendency toward moisture absorption
